Results on 27 compounds are retold here after US12006321B2, “Substituted pyrazolo[1,5-a]pyrimidines as apelin receptor agonists” (Sanford Burnham Prebys Medical Discovery Institute, priority 2017, dated 2024).

The experiment deals with T1, human apelin receptor (APJ, APLNR) (Homo sapiens, UniProt P35414).
T1 construct: host or cells: Chinese hamster ovary (CHO) cells, stably integrated receptor
T1 sequence (P35414 1-380): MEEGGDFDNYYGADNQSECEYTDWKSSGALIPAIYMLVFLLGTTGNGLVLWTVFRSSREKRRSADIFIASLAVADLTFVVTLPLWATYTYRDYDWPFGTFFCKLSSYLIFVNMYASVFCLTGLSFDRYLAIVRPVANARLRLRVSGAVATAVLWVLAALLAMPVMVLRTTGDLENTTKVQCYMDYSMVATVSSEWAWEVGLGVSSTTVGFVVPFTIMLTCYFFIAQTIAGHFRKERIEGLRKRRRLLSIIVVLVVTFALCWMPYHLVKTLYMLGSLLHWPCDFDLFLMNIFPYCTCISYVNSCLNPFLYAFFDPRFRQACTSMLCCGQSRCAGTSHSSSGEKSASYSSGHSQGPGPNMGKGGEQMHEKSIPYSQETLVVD
Put plainly: cell-based cAMP assay (TR-FRET) in Chinese hamster ovary cells expressing the apelin receptor. The note with it: EC50 = 50% of control (apelin-13, 1 nM) response; cAMP in CHO cells, 0.5 h incubation; read-out: Potency Category. How it is done: This example illustrates the biological activity of various compounds tested against the APJ receptor.
Commercially available cell lines were used to screen chemical libraries to identify compounds that potently and selectively activated the human apelin receptor. The assays disclosed herein were performed using cell lines from DiscoveX, Inc.
Biological activity was determined to the cell-based assay. This assay detects activation of the receptor by reporting on intracellular cyclic adenosine monophosphate (cAMP) level. Chinese hamster ovary cells engineered to express the stably integrated human appellant receptor (APJ, AGTRL-one, APLNR), pleaded into the wells of the microtiter plate. Cells were stimulated with […] to increase intracellular cyclic AMP. Immediately following, compounds were added to the range of final concentrations 0.0-100 μM, in DMSO (not to exceed a final DMSO concentration greater than 1% v/v), and allowed to incubate with the cells for 0.5 h. At the end of the incubation, cells were lysed to stop APJ signaling and cAMP was quantified using a commercially available competitive immunoassay kit that applies homogenous time-resolved florescence energy transfer (TR-FRET). The assay is based on the competition between a europium (Eu) chelate-labeled cAMP donor tracer and cellular cAMP for binding sites on a cAMP-specific monoclonal antibody labeled with an acceptor fluorophore. When antibodies are bound to the cAMP tracer light emissions at 320 nm stimulate the energy transfer from the donor to the acceptor, which in turn emits light at 665 nm. In the presence of competitive unlabeled cAMP (derived from the activity of the receptor or forskolin-stimulated production of cAMP), the labelled cAMP tracer is dissociated from the cAMP antibody, resulting in a loss of FRET signal. The amount of light emitted by the FRET is inversely proportional to the cAMP generated by the cell/receptor system. Potency and efficacy at APJ are reported in reference to the canonical APJ receptor agonist apelin-13 when tested at 1 nM.
Compound competency is reported as the effective concentration required to effect 50% (EC 50) of the control (apelin—13, 1 nM) response in micromole are (μM) units. Compound efficacy (% response) is reported as a percentage of the maximal apein-13 response at 1 nM (control). Potencies were calculated by fitting a four-point logistic curve to concentration response consisting of at least 10 discrete data points spanning effective range of the compounds in the cell-based assay that measures cAMP. In Table 1, the Potency Categories are A, B, C and D. Category A EC50>500 nM; Category B 200<EC50<500 nM; Category C 100<EC50<200 nM; Category D<100 nM.
On the technique in general: Changes in cAMP serve as a functional read-out for many G protein-coupled receptors.
Turning to `COC(=O)c1cc(C(C)(C)C)n2nc(C)c(-c3ccccc3)c2n1` [Compound 1, methyl 7-(tert-butyl)-2-methyl-3-phenyl-8-hydropyrazolo[1,5-a]pyrimidine-5-carboxylate], the EC50 was over 500 nM. As for `Cc1cccc(C)c1-c1c(C)nn2c(-c3ccncc3)cc(C(=O)O)nc12` [Compound 126, 3-(2,6-dimethylphenyl)-2-methyl-7-(4-pyridyl)-8-hydropyrazolo[1,5-a]pyrimidine-5-carboxylic acid], the EC50 was over 500 nM. The value for `Cc1cccc(C)c1-c1c(C)nn2c(C(C)C)cc(C(=O)O)nc12` [Compound 41, 3-(2,6-dimethylphenyl)-2-methyl-7-(methylethyl)-8-hydropyrazolo[1,5-a]pyrimidine-5-carboxylic acid] was under 100 nM; that for `Cc1cccc(C)c1-c1c(C)nn2c(C3=CCCCC3)cc(C(=O)O)nc12` [Compound 154, 3-(2,6-dimethylphenyl)-7-cyclohex-1-enyl-2-methyl-8-hydropyrazolo[1,5-a]pyrimidine-5-carboxylic acid] was over 500 nM; that for `Cc1cc(F)cc(C)c1-c1c(C)nn2c(C(C)C)cc(C(=O)O)nc12` [Compound 50, 3-(4-fluoro-2,6-dimethylphenyl)-2-methyl-7-(methylethyl)-8-hydropyrazolo[1,5-a]pyrimidine-5-carboxylic acid] was 100 to 200 nM. To `Cc1cccc(C)c1-c1c(C)nn2c(C3CCCC3)cc(C(=O)O)nc12` [Compound 68, 3-(2,6-dimethylphenyl)-7-cyclopentyl-2-methyl-8-hydropyrazolo[1,5-a]pyrimidine-5-carboxylic acid] belongs 200 to 500 nM.

In the case of `Cc1cccc(C)c1-c1c(CO)nn2c(C(C)C)cc(C(=O)O)nc12` [Compound 87, 3-(2,6-dimethylphenyl)-2-(hydroxymethyl)-7-(methylethyl)-8-hydropyrazolo[1,5-a]pyrimidine-5-carboxylic acid], the EC50 was over 500 nM. The value for `CCCc1cc(C(=O)O)nc2c(-c3ccccc3)c(C)nn12` [Compound 36, 2-methyl-3-phenyl-7-propyl-8-hydropyrazolo[1,5-a]pyrimidine-5-carboxylic acid] was over 500 nM; that for `CCOC(=O)c1cc(C(C)C)n2nc(C)c(-c3c(C)cc(OC)cc3C)c2n1` [Compound 46, ethyl 3-(4-methoxy-2,6-dimethylphenyl)-2-methyl-7-(methylethyl)-8-hydropyrazolo[1,5-a]pyrimidine-5-carboxylate] was over 500 nM; that for `Cc1cccc(C)c1-c1c(C)nn2c(C(C)C)cc(C(O)C(F)(F)F)nc12` (stereo not drawn) [Compound 63, 1-[3-(2,6-dimethylphenyl)-2-methyl-7-(methylethyl)(8-hydropyrazolo[1,5-a]pyrimidin-5-yl)]-2,2,2-trifluoroethan-1-ol] was over 500 nM.

Consider `Cc1cccc(C)c1-c1c(C)nn2c(-c3ccccc3)cc(C(=O)O)nc12` [Compound 83, 3-(2,6-dimethylphenyl)-2-methyl-7-phenyl-8-hydropyrazolo[1,5-a]pyrimidine-5-carboxylic acid], for which the EC50 was over 500 nM. The value for `COc1cc(C)c(-c2c(C)nn3c(C(C)C)cc(C(=O)O)nc23)c(C)c1` [Compound 48, 3-(4-methoxy-2,6-dimethylphenyl)-2-methyl-7-(methylethyl)-8-hydropyrazolo[1,5-a]pyrimidine-5-carboxylic acid] was over 500 nM.

Consider `CCOC(=O)c1cc(C(C)C)n2nc(C)c(-c3c(Cl)cccc3Cl)c2n1` [Compound 114, ethyl 3-(2,6-dichlorophenyl)-2-methyl-7-(methylethyl)-8-hydropyrazolo[1,5-a]pyrimidine-5-carboxylate], for which the EC50 is over 500 nM. To `Cc1cccc(C)c1-c1c(C)nn2c(C(C)C)cc(N)nc12` [Compound 110, 3-(2,6-dimethylphenyl)-2-methyl-7-(methylethyl)-8-hydropyrazolo[1,5-a]pyrimidine-5-ylamine] belongs over 500 nM.

For `Cc1nn2c(C(C)C)cc(C(=O)O)nc2c1-c1ccccc1` [Compound 3, 2-methyl-7-(methylethyl)-3-phenyl-8-hydropyrazolo[1,5-a]pyrimidine-5-carboxylic acid], the EC50 is over 500 nM. Regarding `Cc1cccc(Cl)c1-c1c(C)nn2c(C(C)C)cc(C(=O)O)nc12` [Compound 93, 3-(6-chloro-2-methylphenyl)-2-methyl-7-(methylethyl)-8-hydropyrazolo[1,5-a]pyrimidine-5-carboxylic acid], the EC50 was in the range of 200 to 500 nM.

With `COC(=O)c1cc(N(C)c2ccc(C)cc2)n2nc(C)c(-c3c(C)cccc3C)c2n1` [Compound 147, methyl 3-(2,6-dimethylphenyl)-2-methyl-7-[methyl(4-methylphenyl)amino]-8-hydropyrazolo[1,5-a]pyrimidine-5-carboxylate], the EC50 is over 500 nM. To `Cc1ccc(Nc2cc(C(=O)O)nc3c(-c4c(C)cccc4C)c(C)nn23)cc1` [Compound 141, 3-(2,6-dimethylphenyl)-2-methyl-7-[(4-methylphenyl)amino]-8-hydropyrazolo[1,5-a]pyrimidine-5-carboxylic acid] belongs over 500 nM; to `CCOC(=O)c1cc(C(C)C)n2nc(C)c(-c3c(C)cc(Cl)cc3C)c2n1` [Compound 66, ethyl 3-(4-chloro-2,6-dimethylphenyl)-2-methyl-7-(methylethyl)-8-hydropyrazolo[1,5-a]pyrimidine-5-carboxylate], over 500 nM. The value for `Cc1cccc(C)c1-c1c(C(=O)N(C)C)nn2c(C(C)C)cc(C(=O)O)nc12` [Compound 101, 2-(N,N-dimethylcarbamoyl)-3-(2,6-dimethylphenyl)-7-(methylethyl)-8-hydropyrazolo[1,5-a]pyrimidine-5-carboxylic acid] was over 500 nM.

Consider `COC(=O)c1cc(N2CCCC2)n2nc(C)c(-c3c(C)cccc3C)c2n1` [Compound 122, methyl 3-(2,6-dimethylphenyl)-2-methyl-7-pyrrolidinyl-8-hydropyrazolo[1,5-a]pyrimidine-5-carboxylate], for which the EC50 was over 500 nM. The value for `Cc1cccc(Br)c1-c1c(C)nn2c(C(C)C)cc(C(=O)O)nc12` [Compound 130, 3-(2-bromo-6-methylphenyl)-2-methyl-7-(methylethyl)-8-hydropyrazolo[1,5-a]pyrimidine-5-carboxylic acid] was 200 to 500 nM; that for `Cc1cccc(C)c1-c1c(CN(C)C)nn2c(C(C)C)cc(C(=O)O)nc12` [Compound 90, 2-[(dimethylamino)methyl]-3-(2,6-dimethylphenyl)-7-(methylethyl)-8-hydropyrazolo[1,5-a]pyrimidine-5-carboxylic acid] was over 500 nM. With `Cc1cccc(C)c1-c1c(C(C)C)nn2c(C(C)C)cc(C(=O)O)nc12` [Compound 80, 2,7-bis(methylethyl)-3-(2,6-dimethylphenyl)-8-hydropyrazolo[1,5-a]pyrimidine-5-carboxylic acid], the EC50 was over 500 nM. Take `COCc1cccc(C)c1-c1c(C)nn2c(C(C)C)cc(C(=O)O)nc12` [Compound 131, 3-[6-(methoxymethyl)-2-methylphenyl]-2-methyl-7-(methylethyl)-8-hydropyrazolo[1,5-a]pyrimidine-5-carboxylic acid]: the EC50 was under 100 nM. On to `Cc1nn2c(C(C)C)cc(C(=O)O)nc2c1-c1ccc(F)cc1` [Compound 8, 3-(4-fluorophenyl)-2-methyl-7-(methylethyl)-8-hydropyrazolo[1,5-a]pyrimidine-5-carboxylic acid], for which the EC50 is over 500 nM.

Turning to `COC(=O)c1cc(Nc2ccc(OC(F)(F)F)cc2)n2nc(C)c(-c3c(C)cccc3C)c2n1` [Compound 137, methyl 3-(2,6-dimethylphenyl)-2-methyl-7-{[4-(trifluoromethoxy)phenyl]amino}-8-hydropyrazolo[1,5-a]pyrimidine-5-carboxylate], the EC50 is over 500 nM.
